The test system of data set [1] is human colorectal (SW620, HCT116, Colo205) and lung (A549, Calu-6) tumour xenografts. Briefly: tumour growth inhibition in human tumour xenografts. Type of data set: in vivo. Particulars: panel of human colorectal (SW620, HCT116, Colo205) and lung (A549, Calu-6) tumour xenografts; with statistical significance.
Data set [2] in a line: pro-drug conversion to the active moiety in human plasma. Type of data set: in vitro ADME.

For the compound `CCN(CCCOc1ccc2c(Nc3cc(CC(=O)Nc4cccc(F)c4)n[nH]3)ncnc2c1)CCOP(=O)(O)O` [AZD1152, 2-{ethyl[3-({4-[(5-{2-[(3-fluorophenyl)amino]-2-oxoethyl}-1H-pyrazol-3-yl)amino]quinazolin-7-yl}oxy)propyl]amino}ethyl dihydrogen phosphate], the “inhibition of tumour growth” value in data set [1] is recorded as “inhibit tumour growth”. Moreover, the “conversion of pro-drug to active moiety AZD1152 HQPA” value in data set [2] was “rapidly and completely converted”.
